From BindingDB's records for doi:10.1021/jm7013887 (Abbott Laboratories, 2008) come the findings set out here.

Molecules are shown by their SMILES.

Experiment [1] addresses T1, Diacylglycerol O-acyltransferase 1 (Homo sapiens, UniProt O75907).
T1 sequence (O75907 whole entry): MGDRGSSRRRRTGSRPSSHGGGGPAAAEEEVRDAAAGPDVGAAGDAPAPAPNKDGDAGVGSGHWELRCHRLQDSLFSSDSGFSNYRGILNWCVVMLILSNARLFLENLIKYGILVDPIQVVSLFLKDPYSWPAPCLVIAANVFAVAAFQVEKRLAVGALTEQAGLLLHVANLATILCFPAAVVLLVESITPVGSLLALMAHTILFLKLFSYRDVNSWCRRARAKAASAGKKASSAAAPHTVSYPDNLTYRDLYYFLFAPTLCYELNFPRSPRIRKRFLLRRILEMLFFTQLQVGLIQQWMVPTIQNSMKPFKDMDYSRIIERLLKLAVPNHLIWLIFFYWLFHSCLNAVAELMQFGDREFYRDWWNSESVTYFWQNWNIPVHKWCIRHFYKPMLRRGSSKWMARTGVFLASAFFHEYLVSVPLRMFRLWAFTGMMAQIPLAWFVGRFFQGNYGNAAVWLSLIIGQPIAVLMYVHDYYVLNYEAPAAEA
In words: In Vitro FlashPlate Assay. Conditions: pH 7.5; 22 °C. How it is done: (§1) DGAT-1 activity was characterized by catalyzing the transfer of the radiolabeled decanoyl group onto the syn-3 position of didecanoyl glycerol. The resultant radiolabeled tridecanoyl glycerol (tricaprin) preferentially binds to the hydrophobic coating on the phospholipid FlashPlate, and radioactivity was measured in the TopCount Plate Reader. Various concentrations (0.0001 uM to 10 uM) of test compounds were added to individual wells prior to the addition of membranes.

For experiment [2], the target named is T2, Diacylglycerol O-acyltransferase 1 (Mus musculus, UniProt Q9Z2A7).
T2 sequence (Q9Z2A7 whole entry): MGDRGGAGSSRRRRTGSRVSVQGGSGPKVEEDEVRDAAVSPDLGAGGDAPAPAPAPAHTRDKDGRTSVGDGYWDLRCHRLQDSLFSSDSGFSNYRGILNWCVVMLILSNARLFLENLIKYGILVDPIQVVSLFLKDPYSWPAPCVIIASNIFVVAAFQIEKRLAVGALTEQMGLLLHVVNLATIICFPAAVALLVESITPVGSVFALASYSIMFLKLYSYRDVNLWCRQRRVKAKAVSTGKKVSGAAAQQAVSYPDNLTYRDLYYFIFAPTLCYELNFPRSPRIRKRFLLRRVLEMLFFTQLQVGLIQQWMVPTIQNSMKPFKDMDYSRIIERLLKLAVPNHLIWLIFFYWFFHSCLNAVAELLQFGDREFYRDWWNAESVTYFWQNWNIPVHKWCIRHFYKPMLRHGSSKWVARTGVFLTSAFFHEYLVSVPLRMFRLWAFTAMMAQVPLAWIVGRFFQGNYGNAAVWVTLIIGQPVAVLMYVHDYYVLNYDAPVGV
Description: In Vitro FlashPlate Assay. The following applies: pH 7.5; 22 °C. The procedure:
as §1

With `COc1ccc(NC(=O)Nc2ccc(-c3ccc(C(=O)[C@@H]4CCC[C@H]4C(=O)O)cc3)cc2)cc1` [(1R,2R)-2-{[4-(4-{[(4-methoxyphenyl)carbamoyl]amino}phenyl)phenyl]carbonyl}cyclopentane-1-carboxylic acid], the values for the IC50 in experiment [1] and in experiment [2] were 9 nM and 28 nM, respectively.
